Assay results taken from patent publication US20130004580A1, “DIVALENT CATION/TALC CONTAINING COMPOSITIONS AND METHODS FOR TREATING AND/OR PREVENTING ENZYMATIC IRRITATION” (priority 2011, published 2013).

How the values were obtained:
Type in all cases: biochemical
trypsin [1] = experiment: Trypsin inhibition, EnzChek protease assay, mixtures of talc with divalent cation salts
Protocol: The objective of the following experiment was to determine whether and to what extent adding a divalent cation to talc inhibited trypsin activity in an in vitro assay. The inhibition of trypsin-induced cleavage of a fluorescent casein peptide was measured using the EnzChek™ protease assay kit, following manufacturer's instructions (EnzChek™ Protease Assay Kits Product Information, Revised; Molecular Probes, Eugene Oreg.). […] Trypsin working solution (Sigma, St. Louis, Mo., unit/mL) was prepared in digestion buffer provided in the assay kit. Stock solution of BODIPY FL casein (trypsin substrate, mg/mL) was prepared by adding 0.2 mL to the substrate vials (provided in kit), and the final substrate working solution (10 microgram/mL) was prepared by dilution in digestion buffer (pH 7.8). Following incubation of the trypsin, with or without the test materials, with the BODIPY fluorescent casein substrate, at room temperature for one hour, fluorescence was measured (excitation 485 nm/emission 530 nm) using a SpectraMax microtiter plate reader (Molecular Devices Corporation, Sunnyvale, Calif.) and Softmax Pro software (Molecular Devices Corporation). Each experiment was performed in three replicates.

trypsin [2] = experiment: Trypsin inhibition, EnzChek protease assay, zinc oxide/acid mixtures and formulations; details: text b134 on Table 5
Protocol: The objective of the following experiment was to determine whether and to what extent adding an acid to a formulation containing zinc oxide had on inhibition of trypsin activity in an in vitro assay. The inhibition of trypsin-induced cleavage of a fluorescent casein peptide was measured using the EnzChek™ protease assay kit, following manufacturer's instructions (EnzChek™ Protease Assay Kits Product Information, Revised; Molecular Probes, Eugene Oreg.). Briefly, mixtures of zinc oxide and acid at different concentrations were prepared in 1×PBS (pH 7.4) and their pH was recorded as listed in the Tables 5-8. Trypsin working solution (Sigma, St. Louis, Mo., unit/mL) was prepared in digestion buffer provided in the assay kit. Stock solution of BODIPY FL casein (trypsin substrate, mg/mL) was prepared by adding 0.2 mL to the substrate vials (provided in kit), and the final substrate working solution (10 microgram/mL) was prepared by dilution in digestion buffer (pH 7.8). Following incubation of the trypsin, with or without the test materials (50 μl), with the BODIPY fluorescent casein substrate, at room temperature for one hour, fluorescence was measured (excitation 485 nm/emission 530 nm) using a SpectraMax microtiter plate reader (Molecular Devices Corporation, Sunnyvale, Calif.) and Softmax Pro software (Molecular Devices Corporation). Each experiment was performed in three replicates. […]

trypsin [3] = experiment: Trypsin inhibition, EnzChek protease assay (BODIPY FL casein cleavage), cation salts; details: Table 1
Protocol: The inhibition of trypsin-induced cleavage of a fluorescent casein peptide was measured using the EnzChek™ protease assay kit, following manufacturer's instructions (EnzChek™ Protease Assay Kits Product Information, Revised; Molecular Probes, Eugene Oreg.). Briefly, test materials at different concentrations were prepared in 1× phosphate buffered saline (PBS, pH 7.4). Trypsin working solution (Sigma, St. Louis, Mo., unit/mL) was prepared in digestion buffer provided in the assay kit. Stock solution of BODIPY FL casein (trypsin substrate, mg/mL) was prepared by adding 0.2 mL to the substrate vials (provided in kit), and the final substrate working solution (10 microgram/mL) was prepared by dilution in digestion buffer (pH 7.8). […] Each experiment was performed in three replicates.

`CC(=O)[O-].CC(=O)[O-].O.[Ca+2]` [Calcium acetate monohydrate] was tested, and the “Salt alone, trypsin inhibition activities (%)” value (trypsin [1]; Table 3, 0.1% (g/mL)) was 15.31%.

`[Ca+2].[Cl-].[Cl-]` [Calcium chloride] was tested, and the “Salt alone, trypsin inhibition activities (%)” value (trypsin [1]; Table 3, 0.1% (g/mL)) was 17.95%.

`O.O.O.O.[Cl][Fe][Cl]` [Iron (II) chloride tetrahydrate] was tested, and the “Salt alone, trypsin inhibition activities (%)” value (trypsin [1]; Table 3, 0.1% (g/mL)) was 65.07%.

For `CC(=O)[O-].CC(=O)[O-].O.O.O.O.[Mg+2]` [Magnesium acetate tetrahydrate], the “Salt alone, trypsin inhibition activities (%)” value (trypsin [1]; Table 3, 0.1% (g/mL)) was 0.83%.

For `[Cl-].[Cl-].[Mg+2]` [Magnesium chloride], the “Salt alone, trypsin inhibition activities (%)” value (trypsin [1]; Table 3, 0.1% (g/mL)) was 4.75%, the “Salt alone, trypsin inhibition activities (%)” value (trypsin [1]; Table 4, 0.1% MgCl2 (g/mL)) was 9.02% and the “With 1% Talc, trypsin inhibition activities (%)” value (trypsin [1]; Table 4, 0.1% MgCl2 with 1% talc (g/mL)) was 25.43%. The “Salt alone, trypsin inhibition activities (%)” value (trypsin [1]; Table 4, 0.5% MgCl2 (g/mL)) was 19.51%, the “With 1% Talc, trypsin inhibition activities (%)” value (trypsin [1]; Table 4, 0.5% MgCl2 with 1% talc (g/mL)) was 32.84% and the “Salt alone, trypsin inhibition activities (%)” value (trypsin [1]; Table 4, 1% MgCl2 (g/mL)) was 22.13%. The “With 1% Talc, trypsin inhibition activities (%)” value (trypsin [1]; Table 4, 1% MgCl2 with 1% talc (g/mL)) was 40.42% and the “trypsin inhibitory activity, in words” value (trypsin [1]; text b102 on Table 4) was “moderate to low levels of trypsin inhibitory activity”.

`CC(=O)[O-].CC(=O)[O-].[Zn+2]` [Zinc acetate dihydrate] was tested, and the “Salt alone, trypsin inhibition activities (%)” value (trypsin [1]; Table 3, 0.1% (g/mL)) was 62.84%.

In the case of `[Cl-].[Cl-].[Zn+2]` [Zinc chloride], the “Salt alone, trypsin inhibition activities (%)” value (trypsin [1]; Table 3, 0.1% (g/mL)) is reported as 81.07%.

In the case of `[O]=[Zn]` [ZnO, zinc oxide], the “trypsin inhibitory activity, in words” value (trypsin [2]) is reported as “minimal protease activity”.

In the case of “copper (II) chloride [(II) chloride dihydrate]”, the “% trypsin inhibitory activity” value (trypsin [3]; concentration 0.01% (g/mL)) is reported as 64.98%, the “% trypsin inhibitory activity” value (trypsin [3]; concentration 0.10% (g/mL)) is reported as 99.34% and the “% trypsin inhibitory activity” value (trypsin [3]; concentration 1% (g/mL)) is reported as 108.34%.
